Measurements reported in article PMC7337048 (Journal of Structural Biology: X, 2019).
Values joined by “and” are separate entries in the source; they are usually repeats but may differ in a detail not shown here. Equal values may be shown once. Read-outs that look alike come from different tables or passages of the source.

Legend:
[1] = target: Human Arginase-2; settings: cited from earlier work; for IC50: Enzyme assay at pH 7.4
[2] = target: T1, human Arginase-1 (Homo sapiens, UniProt P05089); experiment: Thermal shift assay; type: binding; settings: 50 μM inhibitor
T1 sequence (P05089 1-322): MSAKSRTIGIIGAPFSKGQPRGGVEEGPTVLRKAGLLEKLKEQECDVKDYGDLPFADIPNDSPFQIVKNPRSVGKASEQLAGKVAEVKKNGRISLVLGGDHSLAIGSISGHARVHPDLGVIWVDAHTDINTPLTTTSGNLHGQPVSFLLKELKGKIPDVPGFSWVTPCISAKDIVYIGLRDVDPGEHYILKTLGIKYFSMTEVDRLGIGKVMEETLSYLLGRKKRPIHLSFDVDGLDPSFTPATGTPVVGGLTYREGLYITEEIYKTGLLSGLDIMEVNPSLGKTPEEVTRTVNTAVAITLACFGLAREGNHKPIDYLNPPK
Description: In a 96-well PCR plate (cat no. 652260; Greiner), 10 μL of the enzyme solution was mixed with 5 μL of 200 μM compound dissolved in MQ. […] The plate was sealed with Microseal B Adhesive Sealer (cat. no. MSB1001; Bio-Rad, Hercules, CA) and placed in a CFX96 Real-Time Detection System (Bio-Rad). The temperature was increased from 20 to 95 °C in increments of 0.5 °C during which the SYPRO Orange fluorescence was measured. The resulting datasets were first truncated to contain only the data points that lie between the minimal and maximal fluorescence signals. The remaining data were then fitted to the sigmoidal five-parameter equation (Eq. (2)) ([Schulz et al., 2013]), in which Fmin and Fmax are respectively the minimum and maximum fluorescent signals of the melting transition, T is the temperature, a is the hill slope and c is the asymmetric factor. The melting temperature was then determined as the point of inflection of the melting curve (Eq. […] The reported values were measured in quadruplicate in four independent experiments.(2) […]

[3] = target: T1, human Arginase-1; experiment: Surface plasmon resonance binding kinetics; settings: for τ (target residence time): τ = 1/kd
Description: Binding kinetics of the inhibitors were determined by SPR using a Biacore T200 (GE Healthcare). […] The inhibitors were diluted in running buffer from a stock solution in MQ and were injected in an increasing concentration range of 0.1, 0.316, 1, 3.16 and 10 µM. […] The compound response was subtracted with both the reference channel response and the blank injection.

[4] = target: T1, human Arginase-1; settings: Enzyme assay at pH 7.4; racemic ABH assumed; ref Golebiowski et al., 2013, Van Zandt et al., 2013, Golebiowski et al., 2013, Van Zandt et al., 2019; cited from earlier work
[5] = target: T1, human Arginase-1; experiment: Arginase-1 colorimetric urea assay (inhibition); type: biochemical; settings: for IC50: read-out: IC50 (nM) (95% CI); for Ki: Cheng-Prusoff equation, read-out: Ki (nM) (95% CI)
Description: Arginase-1 activity was monitored by measurement of the rate of urea formation in a classic colorimetric assay ([Jung et al., 1975], [Zawada et al., 2009]). […] Compounds were either dissolved and diluted in DMSO, followed by further dilution in reaction buffer, or dissolved in MilliQ water (MQ) and diluted in reaction buffer to the desired concentrations. […] The enzymatic reaction was stopped by addition of 30 μL of the reagent A + B mixture. […] The reported values were measured in quadruplicate in four independent experiments. Dose-response curves were fitted with a four-parameter logistic regression using XLFit (IDBS, Guildford, UK) to determine IC50 values. Graphs for the manuscript were prepared using Prism (GraphPad Software, San Diego, CA).

[6] = target: T1, human Arginase-1; experiment: Apparent Michaelis-Menten parameters, colorimetric urea assay; type: biochemical; settings: substrate; for Km: read-out: Michaelis constant (KM)
Description: Arginase-1 activity was monitored by measurement of the rate of urea formation in a classic colorimetric assay ([Jung et al., 1975], [Zawada et al., 2009]). All components of the assay were diluted in Arginase reaction buffer 1 (8 mM Na2HPO4, 2 mM KH2PO4, pH 7.4, 137 mM NaCl, 2.7 mM KCl, and 0.05% Tween-20) or Arginase reaction buffer 2 (10 mM glycine, pH 9.5, 137 mM NaCl, 2.7 mM KCl, and 0.05% Tween-20). Compounds were either dissolved and diluted in DMSO, followed by further dilution in reaction buffer, or dissolved in MilliQ water (MQ) and diluted in reaction buffer to the desired concentrations. In a clear 384-well plate (cat. no. 781101; Greiner), 10 µL diluted compound and 10 µL of 3 nM (pH 9.5) or 15 nM (pH 7.4) Arginase-1 were combined and incubated for 90 min at room temperature. Then, 10 µL of 15 mM (pH 9.5) or 7.5 mM (pH 7.4) L-arginine (cat. no. 105000250; Acros Organics) was added to the plate, followed by incubation for 30 min. A 1:1 mixture of reagent A (10 mM o-phthaldialdehyde, 0.4% polyoxyethylene (23) lauryl ether (w/v) and 1.8 M sulfuric acid) and reagent B (1.3 mM primaquine diphosphate, 0.4% polyoxyethylene (23) lauryl ether (w/v), 130 mM boric acid and 3.6 M sulfuric acid) was prepared. The enzymatic reaction was stopped by addition of 30 μL of the reagent A + B mixture. After incubation with the reagent mixture for 60 min (pH 9.5) or 120 min (pH 7.4), the absorbance was measured at 450 nm using the EnVision 2104 Multilabel Plate Reader (PerkinElmer, Waltham, MA) (excitation filter P450). The final concentrations of Arginase-1 and L-arginine in the assay were respectively 1 nM and 5 mM at pH 9.5, and 5 nM and 2.5 mM at pH 7.4.

[7] = test system: Arginase-1; design: method as in Stone et al., 2010, Alarcón et al., 2006, Tsui et al., 2009; settings: differences in pH and temperature; ref Stone et al., 2010, Alarcón et al., 2006, Tsui et al., 2009; cited from earlier work
[8] = Enzyme assay at pH 7.5, ref Colleluori and Ash, 2001

In the case of `N=C(NO)NCC[C@H](N)C(=O)O` [nor-NOHA, N^ω-hydroxy-nor-L-arginine], the IC50 ([1]; ref Van Zandt et al., 2019) is listed as 1260 nM, the Ki [1, 8] is listed as 51 nM and the ΔTm at 50 µM ([2]; pH 7.4) is listed as 4.8 °C. It also gave a ΔTm at 50 µM ([2]; pH 9.5) of 4.7 °C.

In the case of `N[C@@H](CCCCB(O)O)C(=O)O` [ABH, (2S)-2-amino-6-boronohexanoic acid], the IC50 ([1]; racemic ABH assumed, ref Golebiowski et al., 2013, Van Zandt et al., 2013, Golebiowski et al., 2013, Van Zandt et al., 2019) is given as 1920 to 2550 nM, the Ki [1, 8] is given as 250 nM and the Ki ([1]; Enzyme assay at pH 9.5, ref Colleluori and Ash, 2001) is given as 8.5 nM. For the same molecule, the “potency lower at pH 7.5 compared to pH 9.5” value ([1]; pH 7.5 versus pH 9.5, ref Colleluori and Ash, 2001) was ~30 times, the Kd ([3]; pH 7.4) was 797 nM and the ka ([3]; pH 7.4) was 12000 M⁻¹ s⁻¹. The kd ([3]; pH 7.4) was 0.0099 s⁻¹, the “log(ka)” value ([3]; pH 7.4) was 4.09 and the “log(kd)” value ([3]; pH 7.4) was −2.00. The “τ (target residence time)” value ([3]; pH 7.4) was 100 s, the Kd ([3]; pH 9.5) was 27 nM and the ka ([3]; pH 9.5) was 5100 M⁻¹ s⁻¹. The kd ([3]; pH 9.5) was 0.00014 s⁻¹, the “log(ka)” value ([3]; pH 9.5) was 3.71 and the “log(kd)” value ([3]; pH 9.5) was −3.86. The “τ (target residence time)” value ([3]; pH 9.5) was 7200 s, the Tm ([2]; pH 7.4) was 77.4 °C and the ΔTm at 50 µM ([2]; pH 7.4) was 4.5 °C. The Tm ([2]; pH 9.5) was 80.9 °C, the ΔTm at 50 µM ([2]; pH 9.5) was 3.5 °C and the IC50 [4] was 1450 to 1550 nM. The IC50 ([5]; pH 7.4, 5 nM Arginase-1, 2.5 mM L-arginine) was 184 nM, the Ki ([5]; pH 7.4) was 88 nM and the “decrease in the Ki on increase of the pH from 7.4 to 9.5” value ([5]; pH 7.4 versus pH 9.5) was 8 fold. It also gave an IC50 ([5]; pH 9.5, 1 nM Arginase-1, 5 mM L-arginine) of 22 nM and a Ki ([5]; pH 9.5) of 11 nM.

In the case of `N=C(N)NCCC[C@H](N)C(=O)O` [L-arginine], the “catalytic rate constant (kcat)” value ([6]; pH 7.4) is reported as 57 s⁻¹, the Km ([6]; pH 7.4) is reported as 2300 µM and the “catalytic rate constant (kcat)” value ([6]; pH 9.5) is reported as 460 s⁻¹. For the same molecule, the Km ([6]; pH 9.5) was 4900 µM, the Km [7] was 1900 µM and 2300 µM and 1500 µM and the kcat [7] was 300 s⁻¹ and 190 s⁻¹.

For `C[C@H](N)C(=O)N1C[C@H](CCCB(O)O)[C@](N)(C(=O)O)C1` [CB-1158, (3R,4S)-3-amino-1-[(2S)-2-aminopropanoyl]-4-(3-boronopropyl)pyrrolidine-3-carboxylic acid], the IC50 ([1]; ref Oberlies et al., 2009) is given as 296 nM.
